Experimental findings from patent US20240228488A1 (TAKEDA PHARMACEUTICAL COMPANY LIMITED, priority 2021, published 2024) are described below.

Experiment [1] addresses human activated kallikrein enzyme (Homo sapiens, UniProt P03952). As to the kind of experiment: Plasma kallikrein inhibition, fluorogenic PFR-AMC substrate, 500 pM activated kallikrein format. The experiment is classed as biochemical. As to conditions: 500 pM activated kallikrein, 300 uM PFR-AMC, 30 min preincubation, 10 min reaction; read-out: Primary Dose Response Assay: Average EC50. In a few lines: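 High-enzyme format of the fluorogenic peptide assay, with EC50 taken from AMC signal: 500 pM activated kallikrein, 300 uM Pro-Phe-Arg-AMC, 30 min compound preincubation and 10 min reaction, all at room temperature, pH 7.5.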

The next experiment concerns the target T1, plasma kallikrein (Homo sapiens, UniProt P03952).
T1 construct: from tissue
As to the kind of experiment: Neat human plasma assay, FXIIa contact pathway-activated, PFR-AMC substrate. The experiment is classed as biochemical. The following applies: citrated human plasma 78% final, 10 nM human FXIIa, 100 μM PFR-AMC; read-out: Human Plasma Assay: IC90. In a few lines: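 Compound inhibition of plasma kallikrein measured as PFR-AMC (100 μM) cleavage rate over 5 min at room temperature in 78% citrated human plasma activated with 10 nM FXIIa (Tris pH 7.5 buffer). IC50/IC90 from 4-parameter fit of rate versus inhibitor concentration.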

Chain of human activated kallikrein enzyme (P03952 391-638 limits assumed): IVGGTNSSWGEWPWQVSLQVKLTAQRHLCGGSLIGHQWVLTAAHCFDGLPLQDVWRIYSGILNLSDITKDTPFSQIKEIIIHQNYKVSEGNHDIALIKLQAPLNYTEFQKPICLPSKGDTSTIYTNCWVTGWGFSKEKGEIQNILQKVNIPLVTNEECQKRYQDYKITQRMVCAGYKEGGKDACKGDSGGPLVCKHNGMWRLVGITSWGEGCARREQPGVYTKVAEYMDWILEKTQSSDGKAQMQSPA
Chain of human activated kallikrein enzyme (P03952 20-390 partner limits assumed): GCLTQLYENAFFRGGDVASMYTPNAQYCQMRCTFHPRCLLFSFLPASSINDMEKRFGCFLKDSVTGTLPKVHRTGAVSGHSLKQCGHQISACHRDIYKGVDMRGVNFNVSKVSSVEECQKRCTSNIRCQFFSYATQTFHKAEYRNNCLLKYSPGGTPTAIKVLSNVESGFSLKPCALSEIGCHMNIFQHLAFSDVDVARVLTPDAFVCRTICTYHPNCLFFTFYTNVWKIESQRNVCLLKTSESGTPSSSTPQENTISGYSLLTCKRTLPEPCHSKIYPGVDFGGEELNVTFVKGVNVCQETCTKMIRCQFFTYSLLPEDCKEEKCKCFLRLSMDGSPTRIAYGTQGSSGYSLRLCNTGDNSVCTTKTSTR
T1 sequence (P03952 391-638 limits assumed): as the sequence (P03952 391-638 limits assumed) above
T1 sequence (P03952 20-390 partner limits assumed): as the sequence (P03952 20-390 partner limits assumed) above

As a reminder, the EC50 is the concentration at which the effect is half-maximal. A word on the IC90: it is the concentration needed for an effect of 90%. For `N#Cc1ccc(Cl)cc1[C@@H]1C[C@H]1C(=O)Nc1cc(NCc2cn3cc(C4CC4)cc(CO)c3n2)ccn1` (racemic) [Example 100, rac-(1S*,2S*)-2-(5-chloro-2-cyanophenyl)-N-(4-(((6-cyclopropyl-8-(hydroxymethyl)imidazo[1,2-a]pyridin-2-yl)methyl)amino)pyridin-2-yl)cyclopropane-1-carboxamide], the EC50 in experiment [1] was less than 1 nM. Moreover, on plasma kallikrein, the concentration for an effect of 90% (IC90) was 10000 to 48000 nM.
For the compound `Cc1ccnc([C@H]2C[C@@H]2C(=O)Nc2cc(OCc3cn4cc(C5CC5)cc(S(C)(=O)=O)c4n3)cnn2)n1` [Example 561, (1S,2S)-N-(5-((6-cyclopropyl-8-(methylsulfonyl)imidazo[1,2-a]pyridin-2-yl)methoxy)pyridazin-3-yl)-2-(4-methylpyrimidin-2-yl)cyclopropane-1-carboxamide], in experiment [1], the EC50 is less than 1 nM. Also, the IC90 at plasma kallikrein is less than 400 nM.
Regarding `CN1CC(F)(c2cc(C3CC3)cn3cc(CNc4cc(NC(=O)[C@H]5C[C@@H]5c5cccc(Cl)c5)ncn4)nc23)C1` [Example 402, (1S,2S)-2-(3-chlorophenyl)-N-(6-(((6-cyclopropyl-8-(3-fluoro-1-methylazetidin-3-yl)imidazo[1,2-a]pyridin-2-yl)methyl)amino)pyrimidin-4-yl)cyclopropane-1-carboxamide], the EC50 in experiment [1] was less than 1 nM. The IC90 on plasma kallikrein was 400 to 1500 nM.
The corresponding values for `O=C(Nc1cc(NCc2cn3cc(C4CC4)cc(N4CCN(C5COC5)CC4)c3n2)ncn1)[C@H]1C[C@@H]1c1cccc(Cl)c1` [Example I-202, (1S,2S)-2-(3-chlorophenyl)-N-(6-(((6-cyclopropyl-8-(4-(oxetan-3-yl)piperazin-1-yl)imidazo[1,2-a]pyridin-2-yl)methyl)amino)pyrimidin-4-yl)cyclopropane-1-carboxamide] are 1 to 10 nM and 400 to 1500 nM.
For the compound `Cc1ccnc([C@H]2C[C@@H]2C(=O)Nc2cc(NCc3cn4cc(C5CC5)cc(N5CC(=O)N(C6COC6)C5=O)c4n3)ncn2)n1` [Example 378, (1S,2S)-N-(6-(((6-cyclopropyl-8-(3-(oxetan-3-yl)-2,4-dioxoimidazolidin-1-yl)imidazo[1,2-a]pyridin-2-yl)methyl)amino)pyrimidin-4-yl)-2-(4-methylpyrimidin-2-yl)cyclopropane-1-carboxamide], the EC50 in experiment [1] is less than 1 nM. Besides, the IC90 on plasma kallikrein is less than 400 nM.
The corresponding values for `Cc1cc(NCc2cn3cc(C4CC4)cc(N4CCN(C)CC4)c3n2)cc(NC(=O)[C@H]2C[C@@H]2c2cccc(Cl)c2)n1` [Example 605, (1S,2S)-2-(3-chlorophenyl)-N-(4-(((6-cyclopropyl-8-(4-methylpiperazin-1-yl)imidazo[1,2-a]pyridin-2-yl)methyl)amino)-6-methylpyridin-2-yl)cyclopropane-1-carboxamide] are less than 1 nM and 400 to 1500 nM.
Regarding `CN1CCN(c2cc(C3CC3)cn3cc(CNc4ccnc(NC(=O)[C@H]5C[C@@H]5c5cccc(Cl)c5)c4)nc23)CC1` [Example 138, (1S,2S)-2-(3-chlorophenyl)-N-(4-(((6-cyclopropyl-8-(4-methylpiperazin-1-yl)imidazo[1,2-a]pyridin-2-yl)methyl)amino)pyridin-2-yl)cyclopropane-1-carboxamide], in experiment [1], the half-maximal effective concentration (EC50) was less than 1 nM. The IC90 on plasma kallikrein is less than 400 nM.
On to `CC(C)(O)c1cc(C2CC2)cn2cc(CNc3cc(NC(=O)[C@H]4C[C@@H]4c4cccc(Cl)c4)ncn3)nc12` [Example I-159, (1S,2S)-2-(3-chlorophenyl)-N-(6-(((6-cyclopropyl-8-(2-hydroxypropan-2-yl)imidazo[1,2-a]pyridin-2-yl)methyl)amino)pyrimidin-4-yl)cyclopropane-1-carboxamide], for which the EC50 in experiment [1] lay within 1 to 10 nM. The IC90 at plasma kallikrein lay within 10000 to 48000 nM.
Regarding `Cc1ccnc([C@H]2C[C@@H]2C(=O)Nc2cc(NCc3cn4cc(C5CC5)cc(N5CC6(COC6)OC5=O)c4n3)ncn2)n1` [Example 372, (1S,2S)-N-(6-(((6-cyclopropyl-8-(6-oxo-2,5-dioxa-7-azaspiro[3.4]octan-7-yl)imidazo[1,2-a]pyridin-2-yl)methyl)amino)pyrimidin-4-yl)-2-(4-methylpyrimidin-2-yl)cyclopropane-1-carboxamide], the EC50 in experiment [1] is less than 1 nM. The IC90 at plasma kallikrein is less than 400 nM.
Regarding `Cc1ccnc([C@H]2C[C@@H]2C(=O)Nc2ncc(F)c(NCc3cn4cc(C5CC5)cc(N5CC(=O)N(C)C5=O)c4n3)n2)n1` (racemic) [Example 517, rac-(1S*,2S*)-N-(4-(((6-cyclopropyl-8-(3-methyl-2,4-dioxoimidazolidin-1-yl)imidazo[1,2-a]pyridin-2-yl)methyl)amino)-5-fluoropyrimidin-2-yl)-2-(4-methylpyrimidin-2-yl)cyclopropane-1-carboxamide], the EC50 in experiment [1] is less than 1 nM. Also, the IC90 on plasma kallikrein is less than 400 nM.
As for `CN1CCN(c2cc(C3CC3)cn3cc(CNc4cc(NC(=O)[C@H]5C[C@@H]5c5cccc(Cl)c5)ncn4)nc23)CC1=O` [Example I-153, (1S,2S)-2-(3-chlorophenyl)-N-(6-(((6-cyclopropyl-8-(4-methyl-3-oxopiperazin-1-yl)imidazo[1,2-a]pyridin-2-yl)methyl)amino)pyrimidin-4-yl)cyclopropane-1-carboxamide], the EC50 in experiment [1] was in the range of 1 to 10 nM. The IC90 at plasma kallikrein lay in the range of 1500 to 10000 nM.
The corresponding values for `CN1CCC(F)(c2cc(C3CC3)cn3cc(CNc4cc(NC(=O)[C@H]5C[C@@H]5c5cccc(Cl)c5)ncn4)nc23)CC1` [Example 403, (1S,2S)-2-(3-chlorophenyl)-N-(6-(((6-cyclopropyl-8-(4-fluoro-1-methylpiperidin-4-yl)imidazo[1,2-a]pyridin-2-yl)methyl)amino)pyrimidin-4-yl)cyclopropane-1-carboxamide] are less than 1 nM and 400 to 1500 nM.
Consider `CN1CCC(O)(c2cc(C3CC3)cn3cc(CNc4ccnc(NC(=O)[C@H]5C[C@@H]5c5cccc(Cl)c5)c4)nc23)CC1` [Example 488, (1S,2S)-2-(3-chlorophenyl)-N-(4-(((6-cyclopropyl-8-(4-hydroxy-1-methylpiperidin-4-yl)imidazo[1,2-a]pyridin-2-yl)methyl)amino)pyridin-2-yl)cyclopropane-1-carboxamide], for which, in experiment [1], the EC50 is less than 1 nM. Moreover, the 90% effect concentration (IC90) on plasma kallikrein fell in the range of 400 to 1500 nM.
The corresponding values for `COC(=O)CN1C(=O)CN(c2cc(C3CC3)cn3cc(COc4cc(NC(=O)[C@H]5C[C@@H]5c5nccc(C)n5)nc(C)n4)nc23)C1=O` [Example 550, methyl 2-(3-(6-cyclopropyl-2-(((2-methyl-6-((1S,2S)-2-(4-methylpyrimidin-2-yl)cyclopropane-1-carboxamido)pyrimidin-4-yl)oxy)methyl)imidazo[1,2-a]pyridin-8-yl)-2,5-dioxoimidazolidin-1-yl)acetate] are less than 1 nM and 400 to 1500 nM.
In the case of `Cc1ccnc([C@H]2C[C@@H]2C(=O)Nc2cc(NCc3cn4cc(C5CC5)ccc4n3)ncn2)n1` [Example 381, (1S,2S)-N-(6-(((6-cyclopropylimidazo[1,2-a]pyridin-2-yl)methyl)amino)pyrimidin-4-yl)-2-(4-methylpyrimidin-2-yl)cyclopropane-1-carboxamide], the EC50 in experiment [1] was less than 1 nM. The IC90 at plasma kallikrein is 10000 to 48000 nM.
